The values that follow come from paper PMC11653428, “5‐methyl‐2‐carboxamidepyrrole‐based novel dual mPGES‐1/sEH inhibitors as promising anticancer candidates” (Archiv Der Pharmazie, 2024).

Experiment [1] has as its target T1, human recombinant sEH (Homo sapiens, UniProt P34913).
T1 construct: purchased 10011671
T1 sequence (P34913 1-555): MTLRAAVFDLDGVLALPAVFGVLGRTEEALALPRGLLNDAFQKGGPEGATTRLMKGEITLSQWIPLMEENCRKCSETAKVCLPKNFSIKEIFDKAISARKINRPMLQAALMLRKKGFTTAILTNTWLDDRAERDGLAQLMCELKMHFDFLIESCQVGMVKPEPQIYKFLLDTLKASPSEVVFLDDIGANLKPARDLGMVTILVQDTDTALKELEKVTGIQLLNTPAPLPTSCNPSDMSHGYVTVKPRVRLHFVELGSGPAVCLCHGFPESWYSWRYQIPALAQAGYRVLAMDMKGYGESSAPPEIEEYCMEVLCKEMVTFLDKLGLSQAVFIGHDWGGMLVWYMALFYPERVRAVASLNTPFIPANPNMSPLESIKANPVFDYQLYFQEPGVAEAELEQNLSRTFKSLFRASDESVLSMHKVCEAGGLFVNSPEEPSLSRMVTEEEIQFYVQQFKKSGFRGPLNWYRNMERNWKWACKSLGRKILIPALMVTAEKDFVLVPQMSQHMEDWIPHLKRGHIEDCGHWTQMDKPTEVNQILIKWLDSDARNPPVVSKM
Description: Cell-free sEH activity assay (PHOME fluorescence, inhibitor screening kit). The class given is biochemical. Conditions: for remaining activity at 10 µM: compound at 10 μM, percentage of vehicle control (DMSO) = 100%, n = 3, read-out: Residual activity of sEH, mean ± SD (%); for IC50: threefold dilutions from 30,000 to 1.52 nM, read-out: IC50 (µM), mean ± SD for sEH. The source says:
When the epoxide moiety of PHOME is hydrolyzed by the epoxide hydrolase, an intramolecular cyclization occurs, which results in the release of a cyanohydrin under basic conditions. The cyanohydrin quickly decomposes into cyanide ion and the highly fluorescent 6‐Methoxy‐2‐naphthaldehyde, which can be analyzed. The signal was detected (λex 330 nm, λem 465 nm) on an EnSpire™ Multimode Plate Reader (PerkinElmer).
The reaction was initiated by adding a small amount of a no-fluorescent substrate called PHOME. When sEH hydrolyzes PHOME, it triggers a chemical reaction that ultimately produces a fluorescent compound. The fluorescence emitted by this compound was measured using a plate reader, which allowed the researchers to analyze the enzyme activity and determine the effectiveness of the test compounds in inhibiting sEH.

The test system of experiment [2] is HaCaT cells. Put plainly: Cell survival index (MTT assay and cell count) in HaCaT keratinocytes. The following applies: 48 h of incubation, cell survival index, n = 24, healthy control cells, read-out: IC50 ± SD (µM) HaCat. The experiment is classed as cell-based, human. Here is the method: HaCaT cells, human immortalized keratinocytes (kindly provided by Dr. Valeria Cicatiello at Italian National Research Council (CNR), Institute of Genetics and Biophysics), were maintained in a humidified 5% CO2 atmosphere at 37°C and grown in DMEM (Invitrogen) supplemented with 10% fetal bovine serum (FBS, Cambrex), L‐glutamine (2 mM), penicillin (100 units/mL, Sigma‐Aldrich), and streptomycin (100 μg/mL). Cells were seeded at a density between 2 and 4 × 10^4 cells/cm^2 and cultured to about 80%–90% confluence.^[ [66] ^] HaCaT cells provide ideal in vitro cell systems to study biocompatibility and toxicological cellular responses.
(§1) Bioactivity and cell responses to in vitro treatment with 1f, 2b, 2c, and 2d compounds were investigated through the estimation of a “cell survival index,” arising from the combination of cell viability evaluation with cell counting. The cell survival index is calculated as the arithmetic mean between the percentage values derived from the 3‐(4,5‐dimethyl‐2‐thiazolyl) 2,5‐diphenyl‐2‐H‐tetrazolium bromide (MTT) assay and the automated cell count.^[ [67] ^] HCT‐116 and HaCaT were inoculated in 96‐microwell culture plates at a density of 10^4 cells/well and allowed to grow for 24 h. Subsequently, the culture medium was exchanged with fresh medium, and cells were exposed to different concentrations (0→50 µM) of compounds 1f, 2b−2d under investigation for an additional 48 h. After the treatments, the medium was removed, and the cells were incubated with 20 μL/well of an MTT solution (5 mg/mL MTT, Sigma) for 1 h in a humidified 5% CO2 incubator at 37°C. The incubation was stopped by removing the MTT solution and by adding 100 μL/well of DMSO to solubilize the obtained formazan. Finally, the absorbance was monitored at 550 nm using a microplate reader (iMark microplate reader, Bio‐Rad). Cell number was determined by TC20 automated cell counter (Bio‐Rad), which uses disposable slides, TC20 trypan blue dye (0.4% trypan blue dye w/v in 0.81% sodium chloride and 0.06% potassium phosphate dibasic solution), and a CCD camera to count cells based on the analyses of captured images. The medium was removed, and the cells were collected. Ten microliters of cell suspension, mixed with 0.4% trypan blue solution at a 1:1 ratio, were loaded into the chambers of disposable slides. The results are expressed in terms of total cell count (cell number/mL). […] Total counts and live/dead ratio from random samples for each cell line were subjected to comparisons with manual hemocytometers in control experiments. […] Concentration‐effect curves were obtained with nonlinear regression using GraphPad Prism 8.0 curve‐fitting software.^[ [67] ^]
(§2) Experiments on HTC-116 and HaCat cell lines: The bioactivity and cellular responses to treatment 2d were evaluated by calculating a "cell survival index." This index combines results from cell viability tests (using the MTT assay) and cell counting. HCT-116 and HaCaT cells were grown in 96-well plates for 24 hours, after which they were treated with various concentrations of the compounds for an additional 48 hours. After treatment, cell viability was assessed by incubating the cells with MTT solution, which results in the formation of formazan crystals. These crystals were dissolved in DMSO, and the absorbance was measured to determine cell viability.

Experiment [3] concerns HCT-116 cells. Put plainly: Cell survival index (MTT assay and cell count) in HCT-116 CRC cells. The class given is cell-based, human. Conditions: 48 h of incubation, cell survival index, n = 24, read-out: IC50 ± SD (µM) HCT-116. Here is the method: HCT‐116 cells (CCL‐247 ™), an epithelial‐like carcinoma cell line isolated from the colon of an adult with colon cancer, were purchased from ATCC and cultured in Roswell Park Memorial Institute (Invitrogen) supplemented with 10% fetal bovine serum (FBS, Cambrex), L‐glutamine (2 mM, Sigma), penicillin (100 units/mL, Sigma), and streptomycin (100 μg/mL, Sigma), and cultured in a humidified 5% carbon dioxide atmosphere at 37°C, according to ATCC recommendations.^[ [58] ^]
as §1, §2
(Tetrazolium dyes change colour on reduction, which living cells bring about.)

Experiment [4] addresses T2, mPGES-1 (Homo sapiens, UniProt O14684).
T2 construct: endogenous in cells; host or cells: A549 cells stimulated with IL-1β; microsomal fraction
T2 sequence (O14684 1-152): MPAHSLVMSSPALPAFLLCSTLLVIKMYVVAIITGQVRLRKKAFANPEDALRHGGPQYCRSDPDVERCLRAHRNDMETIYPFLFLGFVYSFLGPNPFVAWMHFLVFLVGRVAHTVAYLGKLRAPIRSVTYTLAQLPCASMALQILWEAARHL
Description: Cell-free mPGES-1 activity assay (microsomes of IL-1β-stimulated A549 cells, PGE2 formation by RP-HPLC). The class given is biochemical. Conditions: for Residual activity of mPGES-1, mean ± SD (%) / remaining activity at 10 µM: compound at 10 μM, percentage of vehicle control (DMSO) = 100%, n = 3; for Residual activity of mPGES-1, mean ± SD (%): 10 µM; for remaining activity at 10 µM: read-out: Residual activity of mPGES-1, mean ± SD (%); for IC50: cell-free, A549 microsomes, read-out: IC50 (µM), mean ± SD for mPGES-1. The protocol: Compounds 1a–f and 2a–d were submitted to a cell‐free assay mPGES‐1^[ [52] ^] to validate the inhibitory activity predicted in silico.
Microsomes of A549 cells containing mPGES‐1 were used as enzyme sources. In brief, A549 cells were stimulated with interleukin‐1β (IL‐1β) (2 ng/mL) for 48 h, harvested, and sonicated. The lysate was first centrifugated at 10,000g (10 min), and then at 174,000g for (1 h) at 4°C. The pellet (microsomal fraction) was resuspended in 1 ml homogenization buffer (0.1 M potassium phosphate buffer, pH = 7.4, 1 mM phenylmethanesulfonyl fluoride, 60 µg/mL soybean trypsin inhibitor, 1 µg/mL leupeptin, 2.5 mM GSH, and 250 mM sucrose), the total protein concentration was determined, and microsomes were diluted in potassium phosphate buffer (0.1 M, pH 7.4) containing GSH (2.5 mM) and seeded in a 96‐well plate. […] After 1 min, the addition of 100 µL of a stop solution (40 mM FeCl3, 80 mM citric acid, and 10 µM 11β‐PGE2) blocked the reaction. PGE2 and 11β‐PGE2 were extracted by solid‐phase extraction, and PGE2 formation was quantified by RP‐HPLC.^[ [52] ^]
mPGES-1 activity assay: Microsomes from A549 cells, which contain the enzyme mPGES-1, were used in an experiment to study the production of PGE2. The A549 cells were first stimulated with IL-1β for 48 hours, then harvested and broken down by sonication. The resulting cell lysate was subjected to two rounds of centrifugation to isolate the microsomal fraction. The microsomes were diluted and placed in a 96-well plate, where they were preincubated with various compounds or a control solution. The production of PGE2 was triggered by adding a substrate, and the reaction was stopped after one minute. PGE2 was then extracted and quantified using HPLC.

Experiment [5] relates to human recombinant mPGES-1. Also on record: method as in earlier work. Conditions: cited from earlier work.
For experiment [6], the system named is mPGES-1 from A549 cells. Also on record: method as in earlier work. The following applies: cited from earlier work.

Molecules are shown by their SMILES. Where two headings read alike, the source gives them in different places.

As to `Cc1[nH]c(C(=O)Nc2ccc(C(C)O)cc2)cc1C(=O)c1ccccc1` (racemic) [Compound 1d, (±) 4‐Benzoyl‐N‐[4‐(1‐hydroxyethyl)phenyl]‐5‐methyl‐1H‐pyrrole‐2‐carboxamide], in experiment [1], the remaining activity at 10 µM worked out at 93.4 ± 0.6%.
A word on the IC50: it is the point on the concentration scale where inhibition reaches its midpoint. `N.N.[Cl][Pt][Cl]` [Cisplatin, reference compound]: the IC50 amounted to 20 ± 3 µM in experiment [2] and 9 ± 3 µM in experiment [3].
For `Cc1[nH]c(C(=O)Nc2ccc3ccccc3n2)cc1C(=O)c1ccccc1` [Compound 1b, 4‐benzoyl‐5‐methyl‐N‐(quinolin‐2‐yl)‐1H‐pyrrole‐2‐carboxamide], the “Residual activity of mPGES-1, mean ± SD (%)” value in experiment [4] was determined as 55.6 ± 2.9%. Moreover, the remaining activity at 10 µM in experiment [4] is around 55%; in experiment [1] it was 71.8 ± 4.7%.
For `Cc1ccc(NC(=O)c2cc(C(=O)c3ccccc3)c(C)[nH]2)cc1C` [Compound 1c, 4‐Benzoyl‐N‐(3,4‐dimethylphenyl)‐5‐methyl‐1H‐pyrrole‐2‐carboxamide], the remaining activity at 10 µM in experiment [4] stood at 65.5 ± 3.7%; in experiment [1], 47.7 ± 2.9%.
For `Cc1[nH]c(C(=O)Nc2cc(Cl)cc(Cl)c2)cc1C(=O)c1ccccc1` [Compound 1e, 4‐benzoyl‐N‐(3,5‐dichlorophenyl)‐5‐methyl‐1H‐pyrrole‐2‐carboxamide] the same measures were 73.4 ± 5.2% and 86.9 ± 4.8%.
As for `Cc1[nH]c(C(=O)Nc2cc(N)cc(C(F)(F)F)c2)cc1C(=O)c1ccccc1` [Compound 1f, N‐[3‐Amino‐5‐(trifluoromethyl)phenyl]‐4‐benzoyl‐5‐methyl‐1H‐pyrrole‐2‐carboxamide], the IC50 in experiment [2] (Homo sapiens, HaCaT) was 37 ± 3 µM; in experiment [3] (Homo sapiens, HCT-116), 25 ± 2 µM; in experiment [1], 5 ± 0.9 µM. Besides, in experiment [4], the “Residual activity of mPGES-1, mean ± SD (%)” value is 47.6 ±4.4%. Moreover, the figures for the remaining activity at 10 µM in experiment [4] and in experiment [1] were around 50% and 36.1 ± 5.1%, respectively.
Regarding `CCc1ccccc1NC(=O)c1cc(C(=O)c2ccc3ccccc3c2)c(C)[nH]1` [Compound 2a, 4‐(2‐Naphthoyl)‐N‐(2‐ethylphenyl)‐5‐methyl‐1H‐pyrrole‐2‐carboxamide], the figures for the remaining activity at 10 µM in experiment [4] and in experiment [1] were 83.4 ± 4% and 74.3 ± 3.6%, respectively.
In the case of `Cc1ccc(NC(=O)c2cc(C(=O)c3ccc4ccccc4c3)c(C)[nH]2)cc1O` [Compound 2b, 4‐(2‐Naphthoyl)‐N‐(3‐hydroxy‐4‐methylphenyl)‐5‐methyl‐1H‐pyrrole‐2‐carboxamide], the half-inhibitory concentration (IC50) amounted to 31 ± 4 µM in experiment [2] (Homo sapiens, HaCaT); 42 ± 1 µM in experiment [3] (Homo sapiens, HCT-116); 3.3 ± 0.5 µM in experiment [4]; 1.5 ± 0.2 µM in experiment [1]. Further, the values for the remaining activity at 10 µM in experiment [4] and in experiment [1] were 17.6 ± 0.3% and 21.7 ± 4.2%, respectively.
On to `COc1ccc(NC(=O)c2cc(C(=O)c3ccc4ccccc4c3)c(C)[nH]2)cc1O` [Compound 2c, 4‐(2‐Naphthoyl)‐N‐(3‐hydroxy‐4‐methoxyphenyl)‐5‐methyl‐1H‐pyrrole‐2‐carboxamide], for which the IC50 in experiment [2] (Homo sapiens, HaCaT) is 43 ± 2 µM; in experiment [3] (Homo sapiens, HCT-116) it was 44 ± 3 µM; in experiment [4] it was 4 ± 1.1 µM; in experiment [1], 6.3 ± 1.1 µM. The remaining activity at 10 µM in experiment [4] was found to be 30.4 ± 1.9%; in experiment [1], 47.2 ± 2.5%.
As to `Cc1[nH]c(C(=O)Nc2ccc(Cl)c(CO)c2)cc1C(=O)c1ccc2ccccc2c1` [Compound 2d, 4‐(2‐Naphthoyl)‐N‐[4‐chloro‐3‐(hydroxymethyl)phenyl]‐5‐methyl‐1H‐pyrrole‐2‐carboxamide], the IC50 in experiment [2] (Homo sapiens, HaCaT) stood at 22 ± 2 µM; in experiment [3] (Homo sapiens, HCT-116) it was 39 ± 2 µM; in experiment [4] it was 4.5 ± 1.3 µM; in experiment [1] it was 7.6 ± 1 µM. Also, the remaining activity at 10 µM in experiment [4] came to 21.5 ± 2.9%; in experiment [1], 41.6 ± 3.1%.
`CCCCCCCCCCCC(=O)c1c(C)c(CCC(=O)O)n(C)c1C` [I, 3-(4-dodecanoyl-1,3,5-trimethyl-1H-pyrrol-2-yl)propanoic acid]: the “Inhibition of human recombinant mPGES-1 at 1μM [%]” value in experiment [5] is 54±8 (n=7) %. Further, the “Inhibition of mPGES-1 from A549 cells at 3.3 μM [%]” value in experiment [6] was 74±8 (n=5) %.
